# Reference: patent US20160366882A1, “AGROCHEMICAL COMPOSITIONS FOR INDUCING ABIOTIC STRESS TOLERANCE” (VIB VZW, priority 2012, published 2016)
# Legend:
# [1] = system: catalase-2 mutant A. thaliana plantlets (cat2-2); assay: agar assay: rescue of cell death of catalase-2 mutants under photorespiratory conditions (Restricted Gas exchange Constant Light; RGCL); type: in vivo, Arabidopsis thaliana; conditions: grown under photorespiratory conditions
# Description: FIG. 2: effect of 5 μM of compound 4 on the rescue of cell death of the catalase-2 mutant A. thaliana plantlets when grown under photorespiratory conditions. Photorespiratory conditions are, for example, as herein used, restricted-gas-exchange-constant light conditions. […] Photorespiration (Rp) is a major source of detrimental effects and yield losses in crop plants. Catalase is one of the crucial proteins in the Rp process since it provides the dissipation sink of photosynthetic excitation overload in the role of Rp as a photo-protective mechanism. Secondly, and as part of the same process, catalase provides effective defense against excessive hydrogen peroxide levels, without requiring additional energy from other sources. Catalase knock-out mutant plants thus provide an excellent tool to study the process of Rp (see Vandenabeele S et al., (2003) PNAS 100, 26, 16113-16118). In the disclosure, we developed a high-throughput screening assay by using a catalase-2 deficient plant. […] Fv/Fm is presented as a ratio of variable fluorescence (Fv) over the maximum fluorescence value (Fm). […] On a regular basis Fv/Fm was monitored for all wells, using a Walz Maxi PAM imager. Several days after transfer to constant light the individual wells were visually scored for cell death. […] Three persons scored independently, and only a consensus of ⅔ scores were maintained as positive hits. […]
# [2] = system: Oilseed rape of the variety Alessio; assay: salt tolerance in oilseed rape (vitality index after salt water irrigation); type: in vivo; conditions: 24 h later 50 ml salt water per pot, 80 grams of NaCl per liter, assessed 3 and 4 days after treatment
# Description: Oilseed rape of the variety Alessio was sown in small pots (8×8×8 cm) filled with universal peat at 4 grains per pot. The plants were grown in a non-heated greenhouse until BBCH 13 (3 unfolded leaves). At that stage the number of plants per pot was reduced to 2, and the plants were either or not treated with dichloroprop-P (Duplosan DP, 600 g/l dichloroprop-P, Nufarm UK Limited), using a Birchmeier hand sprayer with an operating pressure of 2 bar. Per object 8 pots were treated. The 8 pots were put in line, 5 cm apart, and were sprayed overhead within 6 seconds. Two different concentrations of dichloroprop-P were applied: 4 mg/l or 8 mg/l. 24 hours after treatment, the plants were irrigated with salt water, giving 50 ml of water per pot at a concentration of 80 grams of NaCl per liter of water. The following days the plants were assessed visually for salt damage. Plants were divided into 3 categories: high vitality (=2), only moderate vitality (=1) or low vitality (=0), based on which a vitality index was calculated, ranging from 0 (low vitality) to 100 (high vitality).
# [3] = system: Maize of the variety Maibi; assay: frost tolerance in maize (crop condition index after frost regime); type: in vivo; conditions: 24 h later 6 hours at −2° C., assessed 2 days after treatment
# Description: Maize of the variety Maibi was sown in small pots (8×8×8 cm) filled with universal peat at 4 grains per pot. The plants were grown in a non-heated greenhouse until BBCH 13 (3 unfolded leaves). At that stage plants were either or not treated with dichloroprop-P (Duplosan DP, 600 g/l dichloroprop-P, Nufarm UK Limited), using a Birchmeier hand sprayer with an operating pressure of 2 bar. Per object 10 pots were treated. The 10 pots were put in line, 5 cm apart, and were sprayed overhead within 6 seconds. Four different concentrations of dichloroprop-P were applied: 4 mg/l, 8 mg/1, 12 mg/l or 16 mg/l. 24 hours after treatment, the plants were transferred in to a refrigerator that was set at −2° C. for 6 hours. Afterwards the plants were transferred back to the greenhouse. The day after the cold treatment (so 2 days after application of dichloroprop-P) the plants were assessed visually for frost damage. Plants were divided into 3 categories: Good crop condition (=2), only moderate crop condition (=1) or bad crop condition (=0), based on which a crop condition index was calculated, ranging from 0 (bad crop condition) to 100 (good crop condition).
compound,measurement,setting,value
CCCCC(CC)COC(=O)C(C)Oc1ccc(Cl)cc1Cl (stereo not shown) [variant 1],rescue of cell death of the cat2-2 mutant,[1]; 100 nM,rescues cell death
CC(Oc1ccc(Cl)cc1Cl)C(=O)O (stereo not shown) [dichloroprop-P],vitality in salt stress conditions (salt stress tolerance),[2]; spray 4 mg/l at BBCH 13,comparable increase in salt stress tolerance
same,vitality in salt stress conditions (salt stress tolerance),[2]; spray 8 mg/l at BBCH 13,comparable increase in salt stress tolerance
same,crop condition after frost (frost tolerance),[3]; spray 4 mg/l at BBCH 13,better crop condition after frost
same,crop condition after frost (frost tolerance),[3]; spray 12 mg/l at BBCH 13,negative effect on frost tolerance
same,crop condition after frost (frost tolerance),[3]; spray 16 mg/l at BBCH 13,negative effect on frost tolerance
Cc1ccnc(NC(=O)COc2ccc(Cl)cc2Cl)c1 [variant 2],rescue of cell death of the cat2-2 mutant,[1]; 50 nM,rescues cell death
